Results from patent publication US8937068B2, “Pyridopyrazine derivatives and their use” (Zentaris GmbH, priority 2005, dated 2015).

How the values were obtained:
PI3K → pAkt = test: Cellular substrate phosphorylation (Western Blotting), PI3K substrate pAkt; assay type: cell-based; details: 50 μM, 5 h
Protocol: (§1) This method can be used to predict whether the kinase modulator under study also achieves the desired effect in a cellular context, i.e. in this case, a substrate protein downstream of the target kinase is investigated for its phosphorylation status. For this purpose, the cells incubated with substance are lysed and the total protein separated on a reducing polyacrylamide gel. The proteins are then transferred to a PVDF membrane by means of Western Blotting and the substrate bands sought are made visible with specific antibodies and a suitable detection method. The substrate proteins downstream of the target kinases are detected simultaneously with a respectively special anti-phospho-antibody and at the same time a total antibody which recognizes the substrate total protein. This simultaneous measurement can be made using the duplex technology of the ODYSSEY imagers (LiCOR). The intensity of the total substrate bands is used for normalising or quantifying the phosphorylation inhibition or activation.
(§2) Suitable tumour cell lines (e.g. BxPC3, Hct116 or MDA MB468) were injected into six-well microtitre plates in a defined cell number (e.g. 350 000 cells/well for BxPC3 and Hct116) in the respective standard complete medium and then incubated overnight at 37° C., 5% CO2 and 95% air humidity. The cells were then incubated for a further 24 h under serum-reduced conditions i.e. in the respective medium but with only 0.25% serum. The test substances were prepared as stock solutions (10 mM) in DMSO and incubated with the cells in final concentrations of 5, 15.8 and 50 μM for 5 h. This was followed by cell lysis in 25 mM Tris, 150 mM NaCl, 10 mM Na-pyrophosphate, 2 mM EGTA, 25 mM β-glycerophosphate, 25 mM NaF, 10% glycerine, 0.75% NP-40, 100 μM NaVO4 buffer. Following protein quantification by means of BCA (bicinchonic acid protein assay kit, Sigma) Assay, protein quantities of about 20 μg per track were separated on a Lämmli polyacrylamide gel and then transferred to a PVDF membrane (Millipore) by means of Semi-Dry Western-Blotting at 0.8 mA/cm^2 for 1 h. This was followed by pre-hybridisation of the membrane for 1 hour in I-block reagent (Applied Biosystems) and incubation overnight with the specific antibodies. To determine the Erk and PI3K inhibition, the respectively downstream substrates Rsk1 were detected with the total antibody (Rsk #sc-231g C-21, Santa Cruz) and the phospho-antibody (Phospho-p90RSK (S380) #9341, NEB Cell Signalling) and Akt was detected with the total antibody (Akt1 #sc-1618 C-20, Santa Cruz) and the phospho-antibody (Phospho-Akt (Ser 473) #9271, NEB Cell Signaling). After washing the membrane, secondary antibody incubation was carried out with anti-rabbit IR Dye 800 (#611-732-127, Rockland) for the phospho-antibody and anti-goat Alexa Fluor 680 (#A-21081, Molecular Probes) for the total protein-antibody. After incubating for 30 min at room temperature in the dark, the hybridisation of the detection antibody on the membrane was detected by scanning in the ODYSSEY imager (LiCOR).
(§3) The reduction of the fluorescence intensity of the phospho-substrate bands (pRsk and pAkt) is given in the table below as % inhibition and relates to the following formula:
(§4) The band intensity (fluorescence intensity) of the respective non-inhibited (without substance) phospho-substrates was used as 100% control.

BxPC3 = test: XTT assay, anti-proliferative effect, BxPC3; assay type: cell-based; details: Homo sapiens, BXPC-3; 45 h incubation
Protocol: The principle of this test is based on the intracellular reduction of the tetrazolium dye XTT (sodium 3′-[1-(phenylaminocarbonyl)-3,4-tetrazolium]-bis(4-methoxy-6-nitro)benzene sulfonic acid, Sigma) to a formazan dye by mitochondrial dehydrogenases. The dye is only formed by metabolically active cells and its photometrically measurable intensity is a quantitative indicator for the presence of living cells. The reduction of dye formation by incubation of the cells with substances serves as a parameter for the anti-proliferative effect.
The tumour cell lines (ATCC) were injected into 96-well microtitre plates in a defined cell number (5000 cells/well for BxPC3 and Hct116; 10000 cells/well for MDA MB468) and then incubated overnight in an incubator at 37° C., 5% CO2 and 95% air humidity. The test substances were prepared as stock solutions (10 mM) in DMSO. […] The cell plates were then incubated for 45 h in an incubator at 37° C., 5% CO2 and 95% air humidity.
For the detection reaction the substrate XTT was mixed with PMS (N-Methyl dibenzopyrazine methylsulfate, Sigma) and added to the cells so that a final concentration of 325 μg XTT/ml and 2.5 μg PMS/ml was obtained. It was then incubated for 3 h at 37° C., 95% air humidity. The formazan salt formed by the cellular dehydrogenases could then be quantified by adsorption at 490 nm.
The % inhibition value was evaluated by means of the following formula from the values for the optical densities measured in each case at 490 nm:
Eight determinations were made for each control and two for the substance samples. The 0% control contains no cells, the 100% control (proliferation control) contains no test substance. The EC50 values were determined using GraphPadPrism.

Erk → pRsk = test: Cellular substrate phosphorylation (Western Blotting), Erk substrate pRsk; assay type: cell-based; details: 50 μM, 5 h
Protocol: as §1, §2, §3, §4

Structure (SMILES) | inhibition at 50 µM (PI3K → pAkt) | EC50 (BxPC3) | inhibition at 50 µM (Erk → pRsk) | Inhibition of cellular substrate phosphorylation PI3K → pAkt (PI3K → pAkt) | Inhibition of cellular substrate phosphorylation Erk → pRsk (Erk → pRsk) | melting point
O=C(NCCCCO)Nc1ccc2ncc(-c3ccccc3)nc2n1 [Compound 146, 1-(4-Hydroxy-butyl)-3-(3-phenyl-pyrido[2,3-b]pyrazin-6-yl)-urea] | 10% | > 50 µM | 100% |  |  | 
CCNC(=O)Nc1ccc2ncc(-c3ccc(O)c(OC)c3)nc2n1 [Compound 124, 1-Ethyl-3-[3-(4-hydroxy-3-methoxy-phenyl)-pyrido[2,3-b]pyrazin-6-yl]-urea] | 90% | 10 µM | 90% |  |  | 
CCNC(=O)Nc1ccc2ncc(-c3ccc(O)c(OC)c3)nc2n1.Cc1ccc(S(=O)(=O)O)cc1 [Compound 183, 1-Ethyl-3-[3-(4-hydroxy-3-methoxy-phenyl)-pyrido[2,3-b]pyrazin-6-yl]-urea p-Toluolsulfonate] |  |  |  | 80% | 80% | 
CCNC(=O)Nc1ccc2ncc(-c3cnn(C)c3)nc2n1 [Compound 173, 1-Ethyl-3-[3-(1-methyl-1H-pyrazol-4-yl)-pyrido[2,3-b]pyrazin-6-yl]-urea] | 50% |  | 90% |  |  | 
C=CCNC(=S)Nc1ccc2ncc(-c3ccc(O)cc3)nc2n1 [Compound 30, 1-allyl-3-[3-(4-hydroxy-phenyl)-pyrido[2,3-b]pyrazin-6-yl]-thiourea] | 100% | 12 µM | 90% |  |  | 230 °C (dec.)
CCNC(=O)Nc1ccc2ncc(Nc3ccc(C)cc3)nc2n1 [Compound 150, 1-Ethyl-3-(3-p-tolylamino-pyrido[2,3-b]pyrazin-6-yl)-urea] | 90% | 0.9 µM | 0% |  |  | 
